Read-outs that look alike come from different tables or passages of the source.
How the values were obtained:
[1] = Particle size distribution by laser diffraction (Rodos/Helos); type: physicochemical; conditions: for median particle size (D50): starting materials
Experimental: Unless noted otherwise, particle size distribution provided herein is volume based particle size distribution was measured by a laser diffraction particle analyzer (Rodos/Helos system, Sympatec, NJ). Size statistics in terms of d10, d50 and d90 are reported, which are the values of the particle diameter at 10%, 50% and 90% respectively in the cumulative volumetric particle size distribution. In the Rodos/Helos system, the Rodos device works by venturi principle to disperse the powder, and the Helos unit uses laser diffraction principles of Fraunhofer Enhanced Evaluation (FREE) and Mie Extended Evaluation (MIEE) theories of light scattering to determine the particle size. Size statistics of d10, d50 and d90 at dispersion pressure of 0.1 bar are reported utilizing the FREE theory, the details for which can be found in Han et al. “Passivation of high surface energy sites of milled ibuprofen crystals via dry coating,” Journal of Pharmaceutical Sciences, Vol. 102(7), 1-15 (2013) and Jallo et al. “Improvement of flow and bulk density of pharmaceutical powders using surface modification,” International Journal of Pharmaceutics, 423 213-225 (2012).

[2] = from Huang et al., 2015; cited from earlier work
[3] = from Huang et al., 2015; cited from earlier work; remark: listed apart in the source
[4] = Conditioned bulk density, Freeman FT4 powder tester; type: physicochemical; conditions: Example 20, APIs alone
Experimental: Unless otherwise noted, bulk density and flowability, i.e., flow function coefficient (FFC), as provided herein is obtained using a Freeman FT4 powder tester (Freeman Technologies Ltd., Worcestershire, UK), where the bulk density and the flow function coefficient (FFC) were defined as the ratio of consolidation stress to the unconfined yield stress. The FFC was evaluated from a shear test under the consolidation pressure of 3 kPa. Detailed procedures for both may be found in Freeman et al., Measuring the flow properties of consolidated, conditioned and aerated powders—A comparative study using a powder rheometer and a rotational shear cell. […]
Bulk density was measured through a standard FT4 testing procedure that first conditions the powder to yield very repeatable results for the bulk density as discussed in the detailed procedures of Freeman, et al. mentioned above. […] The conditioned bulk density was measured by loading the powder samples into the 25 ml split vessel above the minimum fill level. After a conditioning cycle was performed the vessel was split to remove the top portion of the powder; the density was determined from the mass of the remaining powder in the 25 ml vessel.
In addition to measuring the porosity of the tablets, the porosity of a powder sample, and its complement, packing fraction can be also determined as follows. […]

[5] = True (apparent particle) density by helium pycnometer; type: physicochemical; conditions: Table 1
Experimental: First, the apparent particle density, […]app, for each powder (also referred to as the gas pycnometric and true density of particles) was determined using a helium multipycnometer (Model MVP-6DC, Quantachrome instruments, FL, 33426, USA; repeated five time to get an average). After this is determined, the porosity of each tablet (ε) was calculated from the apparent particle density (ρapp) and the diameter (D), thickness (t) and weight (w) of the tablets using the following equation. All quantities are in SI units.

[6] = Flow function coefficient (FFC), FT4 shear test at 3 kPa; type: physicochemical; conditions: Example 20, APIs alone
[7] = as-received commercial materials, Table 1

SMILES	Particle Size D10 [1, 7] [μm]	Particle Size D50 [1, 7] [μm]	Particle Size D90 [1, 7] [μm]	bulk density [2]	FFC [3]	bulk density [4] [g/mL]	True Density [5] [g/mL]	median particle size (D50) [1] [microns]	FFC [6]
CC(=O)Nc1ccc(O)cc1 [Micronized APAP, micronized acetaminophen]	2	10	37	about 0.2 g/mL	about 2	0.206	1.29		
CC(C)Cc1ccc(C(C)C(=O)O)cc1 (centres unmarked) [Ibuprofen 50]								58	
O=C1O[C@H]([C@@H](O)CO)C(O)=C1O [Ascorbic Acid]						0.896		217	4.67
